Patent publication US5232684A, “Labelled resiniferatoxin, compositions thereof, and methods for using the same” (priority 1990, dated 1993)

System: capsaicin receptor (porcine DRG subcellular fractions)
Format: binding, pig
Description: Subcellular fractions are prepared by a modification of the method of Bastiaensen et al. (Bastiaensen, E., Miserez, B. and De Potter, W., Subcellular fractionation of bovine ganglion stellatum: co-storage of noradrenaline, Met-enkephalin and neuropeptide Y in large `dense-cored` vesicles, Brain Res., 442 (1988) 124-130. ) Briefly: DRG are dissected free from capsule, cut into small pieces with scissors, and then homogenized with a teflon pestle (20 strokes) in ice-cold 0.25 M sucrose/ 20 mM Tris-Cl (pH 7.4) buffer. The homogenate is filtered over surgical gauze; it is then centrifuged for 10 min at 2000 gmax, giving a pellet P1, and again at 10 000 gmax for 15 min giving a pellet P2. The P1 and P2 pellets are saved as nuclear and mitochondrial fractions for binding studies. […]
The binding assays are carried out in a volume of 250 ul, containing assay buffer (same as the disrupting buffer but omitting DTT and EGTA and including 0.75 mM CaCl2), 26-30 ug of membrane protein and 0.25 mg/ml bovine serum albumin. […] An aliquot of 50 ul of the mixture is removed to determine total radioactivity. The filters are washed with 100 ml of ice-cold 20 mM Tris-Cl, pH 7 4, containing 0.1 mg/ml bovine serum albumin, and the bound radioactivity is determined by scintillation counting. Non-specific binding is determined in the presence of 100-1000 nM non-radioactive RTX. […]

For `C=C(C)[C@]12C[C@@H](C)[C@@]34O[C@](Cc5ccccc5)(O[C@@H]1[C@@H]3C=C(COC(=O)Cc1ccc(O)c(OC)c1)C[C@]1(O)C(=O)C(C)=C[C@@H]41)O2` [[^3 H]RTX, [^3 H]resiniferatoxin], the “specific [^3H]RTX binding, microsomal/plasma membrane fraction over mitochondrial fraction” value (fixed 300 pM [^3H]RTX, preliminary) was 5 fold and the “specific [^3H]RTX binding in the nuclear pellet” value (nuclear pellet) was “No specific [^3 H]RTX binding”.
